Results as given in patent US10940139B2, “Compounds that interact with the Ras superfamily for the treatment of cancers, inflammatory diseases, rasopathies, and fibrotic disease” (Shy Therapeutics LLC, priority 2017, dated 2021).

Biological target: KRas G12D/Q61H double mutant (Homo sapiens (Human), UniProt P01116, G12D/Q61H)
Assay: Ras GTP binding domain inhibition assay (labeled GTP)
Details: 20 μM compound; KRas G12D/Q61H double mutant; read-out: % Inhibition at 20 μM of K-Ras mutant and wild-type protein, KRas G12D Q61H
Summary of the method: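 Fluorescence read-out of Cy3-/Cy5-GTP remaining bound to nickel-immobilized His-KRas after washes. Protein was coated overnight at 4° C, then exposed to compound for 3 h at room temperature before a 45 min labeled-GTP incubation.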

Chain of KRas G12D/Q61H double mutant (P01116-2 other isoform, or with tags, fused parts or gaps G12D/Q61H): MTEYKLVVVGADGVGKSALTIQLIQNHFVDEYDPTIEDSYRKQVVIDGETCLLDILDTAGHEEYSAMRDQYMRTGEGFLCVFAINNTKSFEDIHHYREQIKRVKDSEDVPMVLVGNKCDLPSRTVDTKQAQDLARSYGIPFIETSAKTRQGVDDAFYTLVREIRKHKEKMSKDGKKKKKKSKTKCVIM

`Cc1ccc(C)c(OCc2nnc(SCc3c(C#N)c(C)nn3-c3ccccc3)o2)c1` and `Cc1cc2oc(=O)cc(CN(C)Cc3c(C)nn(Cc4ccccc4Cl)c3C)c2cc1C` fall in the same range of inhibition at 20 µM: 25 to 50% for the first, 25 to 50% for the second.

First: Cc1cc(C(=O)COC(=O)c2ccccc2[S+](C)[O-])c(C)n1CCC1=CCCCC1 (centres unmarked)
Second: C=CCOc1ccc(C(=O)c2ccccc2)c(OCC(=O)NC2(C#N)CCCC2)c1
The inhibition at 20 µM of the first is lower: 1 to 25% for the first, 25 to 50% for the second.

Compared with `O=C(c1ccc(-c2ccccc2F)o1)N(Cc1ccco1)C1CCCC1`, `O=C(CN(Cc1csc(COc2ccc(F)cc2)n1)Cc1ccco1)Nc1ccccc1` is lower in inhibition at 20 µM: 51 to 75% for the first, 25 to 50% for the second.

First: COCCN(Cc1ccccc1)CC(O)COC(c1ccc(OC)cc1)c1ccc(OC)cc1 (centres unmarked)
Second: O=C(CSCc1cccc(F)c1)Nc1ccc(-c2ccccc2)cc1
The inhibition at 20 µM of the first is lower: 1 to 25% for the first, 25 to 50% for the second.

`COC(=O)CCc1sc(NC2CCCCC2)nc1-c1ccc(OC)cc1` and `CC(=O)c1cc(C(=O)Nc2cccc(COC3CCCCC3)c2)n(C)c1` fall in the same range of inhibition at 20 µM: 25 to 50% for the first, 25 to 50% for the second.

First: CCCN(CC1CC1)C(=O)COC(=O)c1c(C)nc(-c2cccs2)nc1SC
Second: CCOC(=O)c1ccc2c(c1)nc(C1CCN(S(=O)(=O)c3cccs3)CC1)n2CC
The inhibition at 20 µM of the first is lower: 1 to 25% for the first, 25 to 50% for the second.

`Cc1ccc(OCc2ccc(C(=O)N(CCC#N)CC3CCC3)o2)c(C)c1` and `CC(C)c1ccc(CSc2nnc(SCCNC(=O)C3CCCC3)s2)cc1` fall in the same range of inhibition at 20 µM: 51 to 75% for the first, 51 to 75% for the second.

`NC(=O)c1cc(-c2csc(N3CCCCC3)n2)ccc1O` and `Cc1ccc(CC(C#N)c2c(C#N)c(N)nc(N3CCCCC3)c2C#N)cc1` (centres unmarked) fall in the same range of inhibition at 20 µM: 1 to 25% for the first, 1 to 25% for the second.

`CCOC(=O)c1c(-c2ccc(OC)cc2)oc2ccc(OCC=C(C)C)cc12` and `CCOCCOc1ccc(Br)cc1CNCc1cccc(N2CC=CC2)c1` fall in the same range of inhibition at 20 µM: 25 to 50% for the first, 25 to 50% for the second.

First: COC(=O)c1ccc(CN2CC(NC(=O)OC(C)(C)C)CCC2C(F)(F)F)cc1 (centres unmarked)
Second: CCn1c(SCCCc2nc3ccccc3o2)nc2ccsc2c1=O
The inhibition at 20 µM of the first is higher: 25 to 50% for the first, 1 to 25% for the second.

Same assay, conditions: 20 μM compound; read-out: % Inhibition at 20 μM KRas G12D Q61H

`Nc1nc(-c2ccccn2)nn1C(=O)c1ccc(N2CCNC2=O)cc1` and `N#Cc1ccc(C2(C(=O)Nc3ccnc(-c4ccccn4)n3)CCCC2)cc1` fall in the same range of inhibition at 20 µM: 25 to 50% for the first, 25 to 50% for the second.

Compared with `CC(c1nc2ccccc2n1CCOc1ccccc1)N1CCCCC1` (centres unmarked), `Cc1ccc(OCCn2c(CN3CCCCC3)nc3ccccc32)cc1` is higher in inhibition at 20 µM: 1 to 25% for the first, 25 to 50% for the second.

`O=C(Nc1nnc(-c2ccccn2)[nH]1)C1CC=CCC1` (centres unmarked) and `CC(OCC1CC1)C(=O)Nc1nnc(-c2ccccn2)[nH]1` (centres unmarked) fall in the same range of inhibition at 20 µM: 25 to 50% for the first, 25 to 50% for the second.

`Cn1nc(-c2ccncc2)cc1NC(=O)c1cccnc1` and `CC(C)Cc1cc(C(=O)Nc2cc(-c3ccncc3)nn2C)[nH]n1` fall in the same range of inhibition at 20 µM: 1 to 25% for the first, 1 to 25% for the second.

`CN1CC(Nc2nc(-c3ccccn3)nc3c2CCC3)CCC1=O` (centres unmarked) and `OC1CCC(Nc2nc(-c3ccccn3)nc3c2CCC3)CC1` (centres unmarked) fall in the same range of inhibition at 20 µM: 25 to 50% for the first, 25 to 50% for the second.

First: Cc1nc(CNc2ccccc2Oc2cccc(F)c2)no1
Second: Cc1cccc(C)c1Oc1ccccc1NCc1nnc(C2CC2)o1
The inhibition at 20 µM of the first is lower: 1 to 25% for the first, 25 to 50% for the second.

First: O=S(=O)(Oc1c(Cl)cc(Cl)c2cccnc12)N1CCCCCC1
Second: CS(=O)(=O)CCCC(=O)N1CCCc2c(O)nc(-c3ccccn3)nc21 [drawing 2650]
The inhibition at 20 µM of the first is lower: 25 to 50% for the first, 51 to 75% for the second.

`Nc1nc(O)c2scc(-c3ccccc3)c2n1` [drawing 2692] and `CS(=O)(=O)Nc1nc(-c2ccccn2)nc2scc(-c3ccccc3)c12` fall in the same range of inhibition at 20 µM: 1 to 25% for the first, 1 to 25% for the second.

`CN(C(=O)c1ccc(COc2ccc(Br)cc2)o1)C1CCS(=O)(=O)C1` (centres unmarked) and `CN(Cc1ccco1)C(=O)c1ccc(COc2ccccc2)o1` fall in the same range of inhibition at 20 µM: 1 to 25% for the first, 1 to 25% for the second.

`COCc1nc(C)c(C(=O)Nc2nnc(-c3ccccn3)[nH]2)s1` and `O=C(Nc1nnc(-c2ccccn2)[nH]1)c1ccncc1` fall in the same range of inhibition at 20 µM: 25 to 50% for the first, 25 to 50% for the second.

First: CC1CCN(C(=O)c2csc3c(O)nc(N)nc23)CC1 [drawing 2658]
Second: COCCCC1CCN(C(=O)c2csc3c(O)nc(-c4ccccn4)nc23)CC1 [drawing 2677]
The inhibition at 20 µM of the first is lower: 1 to 25% for the first, 51 to 75% for the second.

`COc1cccc(C2CN(C(=O)c3csc4c(O)nc(-c5ccccn5)nc34)CCO2)c1` (centres unmarked) [drawing 2729] and `Cc1nc(-c2ccccn2)nc(O)c1CCC(=O)NCc1ccccc1F` fall in the same range of inhibition at 20 µM: 25 to 50% for the first, 25 to 50% for the second.

Compared with `COc1ccccc1CN(Cc1cccs1)C(=O)c1ccc(C#N)cc1`, `CN(Cc1ccc(OCc2ccccn2)cc1)Cc1ccccc1OC(F)(F)F` is lower in inhibition at 20 µM: 25 to 50% for the first, 1 to 25% for the second.

`Cc1cc(O)nc(-c2ccccn2)n1` and `CC(=O)Nc1cccc(CNc2cc(C)nc(-c3ccccn3)n2)c1` fall in the same range of inhibition at 20 µM: 25 to 50% for the first, 25 to 50% for the second.

First: CC(C)CN1CC(C(=O)Nc2nc(-c3ccccn3)cs2)CC1=O (centres unmarked)
Second: CC(C)Cc1csc2[nH]c(-c3ccccn3)nc(=O)c12
The inhibition at 20 µM of the first is lower: 1 to 25% for the first, 25 to 50% for the second.

`CCCn1c(CNc2ccccc2OCCOC)nc2cc(S(=O)(=O)N(C)C)ccc21` and `C=CCn1c(SCc2csc(-c3cccc(OC)c3OC)n2)nc2ccccc21` fall in the same range of inhibition at 20 µM: 1 to 25% for the first, 1 to 25% for the second.

`O=c1[nH]c(-c2ncccn2)nc2ccc(-c3cccc(C(F)(F)F)c3)cc12` and `CC(C)c1ccc2nc(-c3ccccn3)[nH]c(=O)c2c1` fall in the same range of inhibition at 20 µM: 25 to 50% for the first, 25 to 50% for the second.

`O=C(Nc1nnc(-c2ccccn2)[nH]1)C(F)(F)c1ccccc1` and `CCc1ccc(OCC(=O)Nc2nnc(-c3ccccn3)[nH]2)cc1` fall in the same range of inhibition at 20 µM: 25 to 50% for the first, 25 to 50% for the second.

`N#Cc1ccc(-c2nnc(CN3CCOc4ccccc4C3)o2)cc1` and `Clc1ccccc1-c1nnc(CN2CCCc3ccccc32)o1` fall in the same range of inhibition at 20 µM: 25 to 50% for the first, 25 to 50% for the second.

First: Cc1ccc(-c2c(C)sc3nc(-c4cnccn4)[nH]c(=O)c23)cc1
Second: Cc1nccc(-c2nc3cc(F)ccc3c(=O)[nH]2)n1
The inhibition at 20 µM of the first is lower: 25 to 50% for the first, 76 to 100% for the second.

First: CCOc1ccc(NC(=O)CN(C)Cc2coc(-c3ccc(C)cc3C)n2)cc1OCC
Second: COc1ccc2c(c1)CCCN2C(=O)CN(Cc1ccco1)S(=O)(=O)c1ccc(C)cc1
The inhibition at 20 µM of the first is lower: 1 to 25% for the first, 25 to 50% for the second.

Compared with `NC(=O)c1cc(N2CCN(c3cccc(C(F)(F)F)c3)CC2)nc2ccccc12`, `O=C(c1nccc2ccccc12)N(Cc1nccn1C(F)F)C1CC1` is lower in inhibition at 20 µM: 25 to 50% for the first, 1 to 25% for the second.

First: Cc1c(C(=O)N(c2ccccc2)C(C)C)cnn1-c1ccccn1
Second: CCCCN(C(=O)c1nn(-c2ccccc2)nc1C)c1ccccc1
The inhibition at 20 µM of the first is lower: 1 to 25% for the first, 25 to 50% for the second.

`COc1cc(COCC(=O)Nc2ccnc(-c3ccccn3)n2)ccn1` [drawing 2813] and `CCN(CCC(=O)OC)c1nc(-c2ccccn2)nc2c1CCC2` fall in the same range of inhibition at 20 µM: 25 to 50% for the first, 25 to 50% for the second.

`Cc1cc(C)n2nc(CC(=O)N(Cc3ccccc3F)C3CC3)nc2n1` and `Cc1sc(C2CC2)nc1-c1ccc(F)c(F)c1` fall in the same range of inhibition at 20 µM: 25 to 50% for the first, 25 to 50% for the second.

`Cc1noc(C)c1CNc1ccccc1Cc1ccccc1` and `Cc1ccccc1Oc1ncccc1NCc1csc(-c2ccccn2)n1` fall in the same range of inhibition at 20 µM: 25 to 50% for the first, 25 to 50% for the second.

`Cc1nc(-c2ccccn2)[nH]c(=O)c1CCO` and `O=c1nc(-c2ccccn2)[nH]c2scc(-c3ccco3)c12` fall in the same range of inhibition at 20 µM: 25 to 50% for the first, 25 to 50% for the second.

First: CC(=O)Nc1ccc(C(F)(F)F)cc1NCc1nc(C)no1
Second: CC(C)(C)c1ccc(OCC(=O)N2N=CCC2(O)C(F)(F)F)cc1 (centres unmarked)
The inhibition at 20 µM of the first is lower: 1 to 25% for the first, 25 to 50% for the second.

First: O=C(c1ccc(COc2ccccc2F)o1)N1CCOc2ccccc21
Second: c1ccc(-c2nc(N3CCOCC3)c3ccsc3n2)nc1 [drawing 2702]
The inhibition at 20 µM of the first is lower: 1 to 25% for the first, 51 to 75% for the second.

First: CC(C)N1C(=O)CC(Nc2cc(C(F)(F)F)nc(-c3ccccn3)n2)C1=O (centres unmarked)
Second: CC(C)Cn1cnnc1C1CCCN1c1ccc(C#N)c(C(F)(F)F)c1 (centres unmarked)
The inhibition at 20 µM of the first is lower: 1 to 25% for the first, 25 to 50% for the second.

Same assay, conditions: 20 μM; read-out: KRas G12D Q61H % Inh.

`O=C(CCn1ccc2ccccc21)Nc1nnc(-c2ccccn2)[nH]1` [drawing 2462] and `O=C(Cc1ccc(F)cc1)Nc1nnc(-c2ccccn2)[nH]1` [drawing 2515] fall in the same range of inhibition at 20 µM: 51 to 75% for the first, 51 to 75% for the second.

`COc1cccc(CC(=O)Nc2nnc(-c3ccccn3)[nH]2)c1` [drawing 2460] and `Cc1ccc(CC(=O)Nc2nnc(-c3ccccn3)[nH]2)cn1` [drawing 2506] fall in the same range of inhibition at 20 µM: 51 to 75% for the first, 51 to 75% for the second.

`CCOc1cc(S(=O)(=O)N(Cc2ccccc2)Cc2ccccc2)c(OCC)cc1C` [drawing 2624] and `CCCOc1ccc2ccccc2c1CN(C)S(=O)(=O)N1CC(C)OC(C)C1` (centres unmarked) [drawing 2626] fall in the same range of inhibition at 20 µM: 25 to 50% for the first, 25 to 50% for the second.

`CC(Oc1cccc(C#N)c1)C(=O)Nc1nnc(-c2ccccn2)[nH]1` (centres unmarked) [drawing 2511] and `N#CCc1ccc(OCC(=O)Nc2nnc(-c3ccccn3)[nH]2)cc1` [drawing 2552] fall in the same range of inhibition at 20 µM: 51 to 75% for the first, 51 to 75% for the second.

`O=C(Cc1ccc2c(c1)OCO2)Nc1nnc(-c2ccccn2)[nH]1` [drawing 2549] and `O=C(COc1ccc2c(c1)CCC2)Nc1nnc(-c2ccccn2)[nH]1` [drawing 2526] fall in the same range of inhibition at 20 µM: 51 to 75% for the first, 51 to 75% for the second.

`C[C@H](NS(=O)(=O)c1ccccc1F)C(=O)Nc1nnc(-c2ccccn2)[nH]1` [drawing 2478] and `O=C(Nc1nnc(-c2ccccn2)[nH]1)C1COc2ccccc2C1` (centres unmarked) [drawing 2490] fall in the same range of inhibition at 20 µM: 51 to 75% for the first, 51 to 75% for the second.

`CC(Oc1ccc(C(=O)Nc2nnc(-c3ccccn3)[nH]2)cn1)c1ccccc1` (centres unmarked) [drawing 2512] and `Cc1noc(C)c1CC(=O)Nc1nnc(-c2ccccn2)[nH]1` [drawing 2492] fall in the same range of inhibition at 20 µM: 51 to 75% for the first, 51 to 75% for the second.

Compared with `Cc1ccc(CN(Cc2ccco2)C(=O)c2oc3ccccc3c2C)cc1` [drawing 2614], `CCC(C)(C)c1ccc(OCCCC(=O)NC(C(=O)OC)C(C)C)c(C(C)(C)CC)c1` (centres unmarked) [drawing 2619] is lower in inhibition at 20 µM: 51 to 75% for the first, 25 to 50% for the second.

`O=C(CC1CCCC1)NCC(=O)Nc1nnc(-c2ccccn2)[nH]1` [drawing 2500] was tested, and the inhibition at 20 µM was 51 to 75%.

Same assay, conditions: read-out: KRas G12D Q61H IC50

For `CC(Oc1cccc(C#N)c1)C(=O)Nc1nnc(-c2ccccn2)[nH]1` (centres unmarked) [drawing 2511], the IC50 was under 5 µM.
